In patent US20230348358A1, “Serotonin Receptor Modulators” (Northeastern University, priority 2020, published 2023):
Entries after “also recorded” stand apart in the source; their conditions may differ.

Columns and labels:
5HT2C receptors = biological target: T1, 5HT2C receptors (Homo sapiens, UniProt P28335); assay: 5HT2C functional assay; assay type: cell-based; settings: read-out: EC50 at 5HT2C receptors (agonist)
T1 construct: host or cells: HEK293, transient
T1 sequence (P28335 33-458): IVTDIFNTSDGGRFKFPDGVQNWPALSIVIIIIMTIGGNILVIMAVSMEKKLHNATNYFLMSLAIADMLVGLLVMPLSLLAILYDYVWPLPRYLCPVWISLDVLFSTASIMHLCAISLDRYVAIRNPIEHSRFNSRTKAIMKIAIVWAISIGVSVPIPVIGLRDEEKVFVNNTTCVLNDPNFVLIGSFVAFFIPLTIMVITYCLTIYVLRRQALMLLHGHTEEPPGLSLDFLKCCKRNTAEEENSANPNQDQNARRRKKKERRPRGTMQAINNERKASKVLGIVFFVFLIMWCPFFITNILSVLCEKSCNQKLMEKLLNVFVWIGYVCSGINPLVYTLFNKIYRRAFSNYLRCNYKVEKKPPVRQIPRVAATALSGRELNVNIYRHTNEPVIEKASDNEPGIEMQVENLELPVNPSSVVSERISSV

D2 receptors = biological target: T2, D2 receptors (Homo sapiens, UniProt P14416); assay: Affinity at dopamine D2 receptors; assay type: binding
T2 construct: host or cells: HEK293, transient
T2 sequence (P14416 whole entry): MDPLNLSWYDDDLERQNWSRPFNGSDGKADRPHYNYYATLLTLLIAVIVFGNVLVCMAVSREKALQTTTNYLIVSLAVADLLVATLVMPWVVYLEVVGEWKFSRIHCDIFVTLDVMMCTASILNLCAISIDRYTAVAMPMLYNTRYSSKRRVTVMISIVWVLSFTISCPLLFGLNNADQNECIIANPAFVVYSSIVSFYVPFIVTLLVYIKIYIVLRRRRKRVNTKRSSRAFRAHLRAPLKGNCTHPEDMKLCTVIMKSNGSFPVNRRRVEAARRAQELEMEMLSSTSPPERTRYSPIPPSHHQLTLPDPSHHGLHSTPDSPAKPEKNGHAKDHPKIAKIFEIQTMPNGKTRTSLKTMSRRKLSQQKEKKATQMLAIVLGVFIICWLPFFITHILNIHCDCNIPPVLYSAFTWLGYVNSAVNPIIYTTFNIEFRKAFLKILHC

C57BL/6J mice = assay: DOI-elicited head-twitch response (HTR); assay type: in vivo, mouse
From the text: The 5-HT2A receptor is a predominant 5-HT receptor in the cortex, and serves important excitation modulation functions on glutamate pyramidal and GABA neurons.

[1] = tested on: mice (C57BL/6J, FVB, C58/J); assay: Locomotor behavior, compound on its own; assay type: in vivo, mouse; settings: compound on its own or in the DOI assay; listed as (2S)-5-FPT, HCl
BL/6J mice = assay: Serotonin syndrome-like behavior observation; assay type: in vivo, mouse
[2] = mouse, in vivo, listed as (2S)-5-FPT, HCl

**Q.** Which results are given for `CN(C)[C@H]1CCc2c(cccc2-c2ccccc2F)C1.Cl` [(S)-5-FPT, (2S)-5-(2-fluorophenyl)-N,N-dimethyl-1,2,3,4-tetrahydronaphthalen-2-amine HCl]?
**A.** EC50 (5HT2C receptors): 230 nM; Affinity at D2 receptors (D2 receptors): poor affinity; DOI HTR at 3 hours post-administration (C57BL/6J mice; 5.6 mg/kg, 3 hours post-administration): did not block the DOI HTR; Time for which attenuation of the DOI HTR remained significant (C57BL/6J mice; 5.6 mg/kg, post-administration): up to 2 hours; DOI-elicited HTR (C57BL/6J mice; [2]): dose-dependently attenuated the DOI-elicited HTR; also recorded: significantly attenuated; Oral activity (C57BL/6J mice; oral administration): orally active; Locomotor behavior [1]: did not alter locomotion; also recorded: without altering locomotor behavior on its own; Flat Body (BL/6J mice; 5.6 mg/kg, mean (SEM) number of six one-minute sessions with the behavior (score/6)): 0(0); Forepaw Tread (BL/6J mice; 5.6 mg/kg, mean (SEM) score/6): 0(0); Head Weave (BL/6J mice; 5.6 mg/kg, mean (SEM) score/6): 0(0); Moon Walk (BL/6J mice; 5.6 mg/kg, mean (SEM) score/6): 0.3(0.2); Piloerection (BL/6J mice; 5.6 mg/kg, mean (SEM) score/6): 0(0); Straub Tail (BL/6J mice; 5.6 mg/kg, mean (SEM) score/6): 0(0); Tremor (BL/6J mice; 5.6 mg/kg, mean (SEM) score/6): 0(0); Serotonin syndrome (BL/6J mice; [2]): did not result in symptoms of serotonin syndrome; also recorded: does not produce serotonin syndrome-like symptoms
